Reference: publication PMC10258805, “Nonpeptidic Oxazole-Based Prolyl Oligopeptidase Ligands with Disease-Modifying Effects on α-Synuclein Mouse Models of Parkinson’s Disease” (Journal of Medicinal Chemistry, 2023)

Legend:
[1] = test system: oligomeric αSyn in AAV-αSyn-injected mice; test: Oligomer-specific αSyn immunoreactivity (OD) in AAV-αSyn PD mouse model; conditions: 10 mg/kg/day minipump, 4 weeks
[2] = test system: LC3BII in HEK-293 cells; test: Autophagy marker LC3BII assay (Western blot); type: cell-based, human; conditions: HEK-293, 10 μM
[3] = test system: pPP2Ac and PP2Ac in HEK-293 cells; test: PP2A marker assay (Western blot); type: cell-based, human; conditions: HEK-293, 10 μM, 4 h
[4] = test system: pPP2Ac and PP2Ac in mouse brain; test: PP2A markers in mouse brain (Western blot); type: in vivo; conditions: 10 mg/kg i.p., 45 min after injection
[5] = test system: AAV2-CBA-αSyn-injected mice; test: Cylinder test in AAV-αSyn PD mouse model; conditions: 10 mg/kg/day minipump, after 2 weeks of treatment (6-week time point), vs vehicle-treated AAV-αSyn mice

N#C[C@@H]1CCCN1C(=O)[C@@H]1CCCN1C(=O)CCCc1ccccc1 [KYP-2047, reference compound]
OD of oligomeric αSyn in the SNpc (in words) ([1]; vs vehicle-treated group): did not significantly reduce
OD of oligomer-specific αSyn in the STR (in words) ([1]; vs vehicle-treated mice): decreased the OD of oligomer-specific αSyn
LC3BII levels (in words) ([2]; 4 h): significant increase in LC3BII levels
LC3BII levels (in words) ([2]; 24 h): significantly elevated LC3BII levels
total PP2Ac levels (in words) [3]: elevated total PP2Ac levels
inactive pPP2Ac levels in mouse brain (in words) [4]: decreased inactive pPP2Ac levels, but this was not significant
levels of PP2Ac in mouse brain (in words) [4]: significantly increased the levels of PP2Ac
use of the ipsilateral forepaw in the cylinder test (in words) [5]: significantly decreased their use of the ipsilateral forepaw
